# US20260184663A1, “INDENE COMPOUNDS, PHARMACEUTICAL COMPOSITIONS THEREOF, AND THEIR THERAPEUTIC APPLICATIONS” (NucMito Pharmaceuticals co. Ltd., priority 2022, published 2026)
# Where two headings read alike, the source gives them in different places.
# What was measured:
# Assay type in all cases: cell-based
# [1] = system: A431 (epidermoid carcinoma); experiment: Antiproliferative activity (CCK-8 cell viability), A431; conditions: Homo sapiens, 72 h, read-out: Antiproliferative activity in cancerous cells, A431 (inhibition of cell growth); for inhibition at 3.3 µM: A-431, Compound concentration: 3.3 μM; for inhibition at 10 µM: A-431, Compound concentration: 10 μM; for inhibition at 30 µM: A-431, Compound concentration: 30 μM
# How it was run: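 A431 epidermoid carcinoma cells grown in DMEM with 10% FBS were plated at 2,000-5,000 cells/well in 96-well plates. After attachment they were exposed to compound at 3.3 μM, 10 μM, or 30 μM for 72 h at 37° C. Viability was then assessed by CCK-8 against DMSO vehicle-treated wells.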
# SW480 (colon cancer) = experiment: Antiproliferative activity (CCK-8 cell viability), SW480; conditions: Homo sapiens, 72 h; for inhibition at 3.3 µM: Compound concentration: 3.3 μM; for inhibition at 10 µM: Compound concentration: 10 μM; for inhibition at 30 µM: Compound concentration: 30 μM
# How it was run: (§1)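 Cells grown in DMEM (HepG2, SW480), MEM (HeLa) or F-12K (A549), each with 10% FBS, then exposed to compound at 3.3, 10 or 30 μM for 72 h at 37 °C. CCK-8 absorbance at 450 nm; viability expressed as percent of DMSO-treated cells, graded as growth inhibition bands.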
# HeLa (cervical cancer) = experiment: Antiproliferative activity (CCK-8 cell viability), HeLa; conditions: Homo sapiens, 72 h, read-out: Antiproliferative activity in cancerous cells, HELA (inhibition of cell growth); for inhibition at 3.3 µM: Compound concentration: 3.3 μM; for inhibition at 10 µM: Compound concentration: 10 μM; for inhibition at 30 µM: Compound concentration: 30 μM
# How it was run: as §1
# [2] = system: B16F10 (malignant melanoma); experiment: Antiproliferative activity (CCK-8 cell viability), B16F10; conditions: Mus musculus, 72 h, read-out: Antiproliferative activity in cancerous cells, B16F10 (inhibition of cell growth); for inhibition at 3.3 µM: B16-F10, Compound concentration: 3.3 μM; for inhibition at 10 µM: B16-F10, Compound concentration: 10 μM; for inhibition at 30 µM: B16-F10, Compound concentration: 30 μM
# How it was run: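 B16F10 melanoma cells grown in DMEM with 10% FBS were plated in 96-well plates at 2,000-5,000 cells/well. After attachment they were exposed to compound in medium for 72 h at 37° C. CCK-8 solution (10 μL) was then added, and after 4 h at 37° C absorbance was read at 450 nm.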
# HepG2 (liver cancer) = experiment: Antiproliferative activity (CCK-8 cell viability), HepG2; conditions: Homo sapiens, 72 h, read-out: Antiproliferative activity in cancerous cells, HepG2 (inhibition of cell growth); for inhibition at 3.3 µM: Compound concentration: 3.3 μM; for inhibition at 10 µM: Compound concentration: 10 μM; for inhibition at 30 µM: Compound concentration: 30 μM
# How it was run: as §1
# [3] = system: A549 (lung adenocarcinoma); experiment: Antiproliferative activity (CCK-8 cell viability), A549; conditions: Homo sapiens, 72 h, read-out: Antiproliferative activity in cancerous cells, A549 (inhibition of cell growth); for inhibition at 3.3 µM: Compound concentration: 3.3 μM; for inhibition at 10 µM: Compound concentration: 10 μM; for inhibition at 30 µM: Compound concentration: 30 μM
# How it was run: as §1
# [4] = system: MDA-MB-231 (breast cancer); experiment: Antiproliferative activity (CCK-8 cell viability), MDA-MB-231; conditions: Homo sapiens, 72 h; for inhibition at 3.3 µM: Compound concentration: 3.3 μM; for inhibition at 10 µM: Compound concentration: 10 μM; for inhibition at 30 µM: Compound concentration: 30 μM
# How it was run: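 MDA-MB-231 breast cancer cells, grown in DMEM with 10% FBS, were plated in 96-well plates at 2,000-5,000 cells/well. Once attached, they were exposed to compound and incubated at 37° C. for 72 h. Viability was then measured with CCK-8 (10 μL per well, 4 h at 37° C.) by absorbance at 450 nm, relative to DMSO vehicle wells.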
# [5] = read-out: Antiproliferative activity in cancerous cells, SW480 (inhibition of cell growth)
# [6] = read-out: Antiproliferative activity in cancerous cells, MDA-MB-231 (inhibition of cell growth)
Structure (SMILES),inhibition at 3.3 µM [1],inhibition at 10 µM [1],inhibition at 30 µM [1],inhibition at 3.3 µM (SW480 (colon cancer); [5]),inhibition at 10 µM (SW480 (colon cancer); [5]),inhibition at 30 µM (SW480 (colon cancer); [5]),inhibition at 3.3 µM (HeLa (cervical cancer)),inhibition at 10 µM (HeLa (cervical cancer)),inhibition at 30 µM (HeLa (cervical cancer)),inhibition at 3.3 µM [2],inhibition at 10 µM [2],inhibition at 30 µM [2],inhibition at 3.3 µM (HepG2 (liver cancer)),inhibition at 10 µM (HepG2 (liver cancer)),inhibition at 30 µM (HepG2 (liver cancer)),inhibition at 3.3 µM [3],inhibition at 10 µM [3],inhibition at 30 µM [3],"inhibition at 3.3 µM [4, 6]","inhibition at 10 µM [4, 6]",other results
"CC1=C(CC(=O)O)c2cc(F)ccc2/C1=C\c1ccc(CO)cc1 [D11, (Z)-2-(5-Fluoro-1-(4-(hydroxymethyl)benzylidene)-2-methyl-1H-inden-3-yl)acetic acid]",< 30%,≥ 50%,≥ 50%,< 30%,≥ 50%,≥ 50%,< 30%,< 30%,≥ 50%,< 30%,< 30%,< 30%,< 30%,< 30%,< 30%,< 30%,≥ 50%,≥ 50%,≥ 50%,≥ 50%,"inhibition at 30 µM [4, 6]: ≥ 50%"
"CC1=C(CC(=O)O)c2cc(Cl)ccc2/C1=C\c1ccc(CCCc2ccc(F)cc2)cc1 [B125, (Z)-2-(5-Chloro-1-(4-(3-(4-fluorophenyl)propyl)benzylidene)-2-methyl-1H-inden-3-yl)acetic acid]",≥ 50%,≥ 50%,,< 30%,≥ 50%,,≥ 50%,≥ 50%,,≥ 50%,≥ 50%,,≥ 50%,≥ 50%,,< 30%,≥ 50%,,30 to 50%,≥ 50%,
"CC1=C(CC(=O)O)c2cc(Cl)ccc2/C1=C\c1cccc(Oc2ccc(C(F)(F)F)cc2)c1 [C105, (Z)-2-(5-Chloro-2-methyl-1-(3-(4-(trifluoromethyl)phenoxy)benzylidene)-1H-inden-3-yl)acetic acid]",≥ 50%,≥ 50%,,≥ 50%,≥ 50%,,≥ 50%,≥ 50%,,≥ 50%,≥ 50%,,≥ 50%,≥ 50%,,≥ 50%,≥ 50%,,≥ 50%,≥ 50%,
"CC1=C(CC(=O)O)c2cc(F)ccc2/C1=C\c1cccc(C(O)c2ccccc2)c1 (stereo not shown) [C310, (Z)-2-(5-Fluoro-1-(3-(hydroxy(phenyl)methyl)benzylidene)-2-methyl-1H-inden-3-yl)acetic acid]",≥ 50%,30 to 50%,≥ 50%,≥ 50%,≥ 50%,≥ 50%,≥ 50%,≥ 50%,≥ 50%,< 30%,30 to 50%,≥ 50%,30 to 50%,≥ 50%,≥ 50%,30 to 50%,30 to 50%,≥ 50%,< 30%,≥ 50%,"inhibition at 30 µM [4, 6]: ≥ 50%"
"CC1=C(CC(=O)O)c2cc(F)ccc2/C1=C\c1ccc(C(=O)c2ccc(F)cc2)cc1 [C305, (Z)-2-(5-Fluoro-1-(4-(4-fluorobenzoyl)benzylidene)-2-methyl-1H-inden-3-yl)acetic acid]",30 to 50%,≥ 50%,≥ 50%,30 to 50%,≥ 50%,≥ 50%,30 to 50%,≥ 50%,≥ 50%,< 30%,≥ 50%,≥ 50%,30 to 50%,≥ 50%,≥ 50%,< 30%,≥ 50%,≥ 50%,≥ 50%,≥ 50%,"inhibition at 30 µM [4, 6]: ≥ 50%"
"CC1=C(CC(=O)O)c2cc(F)ccc2/C1=C\c1ccc(Cc2cc3ccccc3s2)cc1 [C312, (Z)-2-(1-(4-(Benzo[b]thiophen-2-ylmethyl)benzylidene)-5-fluoro-2-methyl-1H-inden-3-yl)acetic acid]",≥ 50%,≥ 50%,≥ 50%,≥ 50%,≥ 50%,≥ 50%,≥ 50%,≥ 50%,≥ 50%,≥ 50%,≥ 50%,≥ 50%,≥ 50%,≥ 50%,≥ 50%,< 30%,≥ 50%,≥ 50%,30 to 50%,≥ 50%,"inhibition at 30 µM [4, 6]: ≥ 50%"
"CC1=C(CC(=O)O)c2cc(Cl)ccc2/C1=C\c1ccc(CCc2ccccc2)cc1 [B158, (Z)-2-(5-Chloro-2-methyl-1-(4-phenethylbenzylidene)-1H-inden-3-yl)acetic acid]",< 30%,< 30%,,< 30%,< 30%,,< 30%,≥ 50%,,30 to 50%,≥ 50%,,< 30%,≥ 50%,,< 30%,< 30%,,< 30%,< 30%,"inhibition at 30 µM (SW480 (colon cancer); read-out: Antiproliferative activity in cancerous cells, SW480): 30 to 50%; inhibition at 30 µM ([4]; read-out: Antiproliferative activity in cancerous cells, MDA-MB-231): 30 to 50%"
"CC1=C(CC(=O)O)c2cc(F)ccc2/C1=C\c1ccc(CCCc2ccc(O)cc2)cc1 [B129, (Z)-2-(5-Fluoro-1-(4-(3-(4-hydroxyphenyl)propyl)benzylidene)-2-methyl-1H-inden-3-yl)acetic acid]",< 30%,≥ 50%,,< 30%,< 30%,,< 30%,≥ 50%,,≥ 50%,≥ 50%,,< 30%,≥ 50%,,30 to 50%,≥ 50%,,≥ 50%,≥ 50%,
